Like-named read-outs stand apart in the source and are kept apart here.
Tests used:
Assay in all cases: Human liver CYP inhibition assay (cocktail, pooled HLM)
Type in all cases: in vitro ADME
CYP3A4 = molecular target: T1, CYP3A4 (Homo sapiens, UniProt P08684)
T1 construct: tissue XenoTech; host or cells: pooled human liver microsomes
Protocol: (§1) The main materials used in this experiment were sourced as follows: Zuranolone from BEIWANTABIO Co., Ltd. (Shanghai, China); liver microsomes (rat and human) and CYP isoenzymes (CYP1A2, CYP2C8, CYP2D6, CYP3A4) from XenoTech (Tewksbury, MA, USA); LTK cells from the China Center for Type Culture Collection (CCTCC, Wuhan, China); and CHO cells from the National Certified Cell Bank (Shanghai, China).
(§2) The IC50 values of S9 and Zuranolone on CYP isoenzymes (1A2, 2C8, 2D6, 3A4) were determined in pooled HLM using a cocktail approach, as previously reported.

CYP1A2 = molecular target: T2, CYP1A2 (Homo sapiens, UniProt P05177)
T2 construct: tissue XenoTech; host or cells: pooled human liver microsomes
T2 sequence (P05177 1-516): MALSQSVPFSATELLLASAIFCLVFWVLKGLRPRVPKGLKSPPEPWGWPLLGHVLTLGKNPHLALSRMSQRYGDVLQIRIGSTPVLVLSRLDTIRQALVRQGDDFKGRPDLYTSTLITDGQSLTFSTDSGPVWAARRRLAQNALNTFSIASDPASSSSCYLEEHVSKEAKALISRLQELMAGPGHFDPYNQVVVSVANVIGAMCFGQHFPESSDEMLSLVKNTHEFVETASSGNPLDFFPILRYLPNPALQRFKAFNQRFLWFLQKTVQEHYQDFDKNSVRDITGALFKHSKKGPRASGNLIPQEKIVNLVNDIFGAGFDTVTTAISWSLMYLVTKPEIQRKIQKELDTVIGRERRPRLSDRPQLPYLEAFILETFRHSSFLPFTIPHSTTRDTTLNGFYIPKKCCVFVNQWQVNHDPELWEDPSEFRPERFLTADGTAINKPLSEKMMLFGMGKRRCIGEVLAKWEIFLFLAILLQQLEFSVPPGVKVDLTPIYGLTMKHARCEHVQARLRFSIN
Protocol: as §1, §2

CYP2C8 = molecular target: T3, CYP2C8 (Homo sapiens, UniProt P10632)
T3 construct: tissue XenoTech; host or cells: pooled human liver microsomes
T3 sequence (P10632 1-490): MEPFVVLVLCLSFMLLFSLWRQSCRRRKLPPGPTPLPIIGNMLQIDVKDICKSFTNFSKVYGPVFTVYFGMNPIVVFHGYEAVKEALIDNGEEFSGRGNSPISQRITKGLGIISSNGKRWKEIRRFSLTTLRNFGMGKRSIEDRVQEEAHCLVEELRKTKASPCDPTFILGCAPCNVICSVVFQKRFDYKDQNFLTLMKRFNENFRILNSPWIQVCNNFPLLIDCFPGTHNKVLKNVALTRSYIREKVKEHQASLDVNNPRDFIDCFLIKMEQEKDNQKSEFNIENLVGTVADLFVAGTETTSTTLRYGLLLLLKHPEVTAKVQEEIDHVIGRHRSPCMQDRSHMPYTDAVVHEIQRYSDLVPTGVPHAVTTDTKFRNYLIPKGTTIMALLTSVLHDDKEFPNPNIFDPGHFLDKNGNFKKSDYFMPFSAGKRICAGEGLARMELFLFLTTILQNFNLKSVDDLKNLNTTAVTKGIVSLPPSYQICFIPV
Protocol: as §1, §2

Measured: IC50

T1 sequence (P08684 whole entry): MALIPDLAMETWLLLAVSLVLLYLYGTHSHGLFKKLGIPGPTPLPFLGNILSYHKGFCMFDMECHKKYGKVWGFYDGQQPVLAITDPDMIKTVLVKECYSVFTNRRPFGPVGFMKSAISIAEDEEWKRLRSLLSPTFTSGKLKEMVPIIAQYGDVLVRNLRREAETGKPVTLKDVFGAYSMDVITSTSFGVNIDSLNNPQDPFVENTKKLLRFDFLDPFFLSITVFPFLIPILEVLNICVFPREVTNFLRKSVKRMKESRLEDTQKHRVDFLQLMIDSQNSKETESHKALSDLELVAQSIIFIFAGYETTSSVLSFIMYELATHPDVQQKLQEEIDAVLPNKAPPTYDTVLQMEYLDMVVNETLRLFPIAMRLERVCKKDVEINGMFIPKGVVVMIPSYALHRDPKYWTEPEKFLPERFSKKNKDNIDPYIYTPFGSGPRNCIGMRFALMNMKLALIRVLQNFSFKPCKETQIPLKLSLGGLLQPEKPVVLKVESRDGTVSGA

C[C@@]1(O)CC[C@H]2[C@H](CC[C@@H]3[C@@H]2CC[C@]2(C)[C@@H](C(=O)Cn4cnn(-c5ccnc(OCC(F)(F)F)c5)c4=O)CC[C@@H]32)C1 [S9]
> 30 µM: CYP3A4; human liver CYP isoenzymes, pooled HLM, read-out: CYP IC50: 3A4 | CYP1A2; human liver CYP isoenzymes, pooled HLM, read-out: CYP IC50: 1A2 | CYP2C8; human liver CYP isoenzymes, pooled HLM, read-out: CYP IC50: 2C8

C[C@@]1(O)CC[C@H]2[C@H](CC[C@@H]3[C@@H]2CC[C@]2(C)[C@@H](C(=O)Cn4cc(C#N)cn4)CC[C@@H]32)C1 [Zuranolone]
> 30 µM: CYP3A4 | CYP1A2 | CYP2C8
